Tests used:
[1] = Determination of surface tension, Wilhelmy plate method (DIN 53914); format: physicochemical; details: added to anionic surfactant (Texapon NSO)
Method: Determination of Surface Activity
Surface activity was determined to DIN 53914. To this end, the solution to be tested was tested by the Wilhelmy plate method (plate PT 11) at 21±1° C. The preparations according to the invention are intended to have a surface activity of at least 20 mN/m, preferably at least 25 mN/m and more particularly at least 30 mN/m, based on the active substance content of 5% by weight.
The surface tension of the surfactant solution containing tartaric acid was compared with that of the pure surfactant solution (Texapon® NSO, sodium lauryl ether sulfate; Cognis, Dusseldorf) by conducting measurements at 21±1° C. using the Wilhelmy plate method (plate PT 11) to DIN 53914.

[2] = Determination of foaming behavior, rotor foam method; format: physicochemical; details: added to anionic surfactant (Texapon NSO)
Method: To determine foaming behavior, the foaming kinetics after 30 seconds and the foam potential after 60 s and 180 s were measured by the rotor foam method (DIN 13996 in preparation). The rotor foam tester consists of a heatable, double-walled cylindrical glass vessel with an internal diameter of 17.5 cm. A scale in mm is provided on the cylindrical glass vessel for reading off the foam height and the liquid level. In addition, the glass vessel is provided with a Styropor lid which is used both to cover and to insulate the vessel. The stirrer consists of a special stirring head with a stirrer shaft 28 cm in length and 1 cm in diameter and a JK stirrer with a digital revolution counter. A thermostat, a stopwatch and a thermometer (digital) are also required.
The test solution was prepared with water of a certain hardness (15° dH). 200 ml of the sample preheated to 30±1° C. were slowly poured in at the rim of the glass vessel which was covered with the Styropor lid when the required temperature of 30±1° C. had been reached. The rotor speed was 1300 r.p.m.
The first foam height value was determined after 30 seconds. To this end, the stirrer was switched off for at most 10 seconds. The foam volume was then determined after 60 and 180 seconds.

Question: Which “Effect of the addition on the surface activity of the anionic surfactant” value [1] does the source give for `O=C(O)C(O)C(O)C(=O)O` (stereo not shown) [tartaric acid] here?
Answer: Its value is “does not significantly affect”.

Question: And the “Effect of the addition on the foam behavior of the anionic surfactant” value [2]?
Answer: The value was “does not significantly affect”.

Question: What does the source list for laureth-4-citrate?
Answer: Effect of the addition on the surface activity of the anionic surfactant [1]: does not significantly affect; Effect of the addition on the foam behavior of the anionic surfactant [2]: does not significantly affect
